This is an account of results in patent publication US20050003029A1, “UTILIZATION OF RUTINS AND AESCINS IN THE TREATMENT OF OCULAR CIRCULATORY DISTURBANCES” (priority 2001, published 2005).

Each structure is given as a SMILES string.

The subject of this experiment is retinal hemorrhages and vascular leakages. In words: Efficacy case examples: oral therapy of patients with retinal hemorrhages and vascular leakages, detected by fluorescence angiography. Format: in vivo, human. As to conditions: orally daily.
Description: (§1) patient with severe visual impairment.
2 relatively small intraretinal hemorrhages on the retina existed, further 8 vascular leakages stainable with fluorescein sodium and detectable using fluorescence angiography. The finding existed for 4 months with the tendency to worsen. The basic disease present was a generalized sclerotic vascular complaint.
patient with suddenly commencing visual impairment, which had existed for 5 months.
A relatively large intraretinal strip hemorrhage existed as a result of a branch vein thrombosis, further 3 vascular leakages detectable by fluorescence angiography. The basic disease present was latent diabetes mellitus.
as §1
1 relatively large and 2 smaller retinal hemorrhages existed; further three vascular leakages which were detectable using fluorescence angiography. The basic disease was a generalized vascular complaint. The finding existed for 5 months with the tendency for increasing worsening.
as §1
A large subretinal hemorrhage existed, further 2 vascular leakages detectable by fluorescence angiography. A risk factor to be seen was the taking for years of a hormonal anticontraceptive.

`CC1OC(OCC2OC(Oc3c(-c4ccc(OCCO)c(OCCO)c4)oc4cc(OCCO)cc(O)c4c3=O)C(O)C(O)C2O)C(O)C(O)C1O` (stereo not drawn) [troxerutin, 3′,4′,7-tris-O-(β-hydroxyethyl)rutin]: the leakages sealed by setting is: (Case example 1, after 2 weeks) 1 leakages; (Case example 3, three-week therapy) 1 leakages; (Case example 4, 2 leakages before) 1 leakages. Where the note is “Case example 1, after 4 weeks”, the “leakages sealed (total)” value is listed as 3 leakages. The “intraretinal hemorrhages (status)” value (Case example 1, four-week therapy, 2 relatively small hemorrhages) is “unchanged”. Besides, the “vascular leakages (status)” value (Case example 2, three-week therapy, 3 leakages before) is “unchanged”. Moreover, the “resorption of intraretinal strip hemorrhage” value (Case example 2, three-week therapy, measured by the starting size) is recorded as 10%. In addition, the “resorption of a small hemorrhage” value (Case example 3, patient, three-week therapy) is given as “low-grade beginning of resorption”. Besides, the “resorption of the large subretinal hemorrhage” value (Case example 4, combination three weeks, measured by the starting size) is reported as “approximately 5%”.
